Data set [1] has as its system CPAE (calf pulmonary artery endothelial cell). Briefly: Inhibiting activity on cell proliferation, SRB analysis (CPAE). The format is cell-based. Conditions: for IC50: CPAE cells, 3 days with drug, SRB, read-out: IC50 (nM) CAPE; for Selectivity Index (L5178Y/CAPE): IC50 L5178Y / IC50 CPAE. As to the method: (§1) In order to compare the safety index (SI) of CPAE (calf pulmonary artery endothelial cell) with that of HUVEC (human umbilical vein endothelial cell), L5178Y lymphoma that was isolated from murine thymus was used. The safety index was defined as IC50 ratio of L5178Y against CPAE (IC50L5178Y/IC50CPAE). All cell lines, which had been kept in liquid nitrogen tank, were used after being thawed and subcultured 2˜3 times in T-flask. CPAE, HUVEC and L5178Y were cultured in MEM culture medium (20% FBS, 50˜100 μg/ml ECGS, 0.15% baking soda, 0.05 mg/ml gentamicin), M199 culture medium (20% FBS, 0.22% baking soda, 100 μg/ml heparin, 3 ng/ml bFGF, 0.05 mg/ml gentamicin) and RPMI 1640 culture medium (10% FBS, 0.2% baking soda, 0.05 mg/ml gentamicin), respectively, under the condition of 37° C. and 5% CO2.
(§2) The drug was prepared by being gradationally diluted to two or ten times by using PBS, 20 μl of the solution was added to each well of 96 well plate in triplicate. The cell, which is being incubated, was treated with trypsin to give cell suspension. The number of cell thereafter was counted. And 180 μl of the solution was inoculated to each well and cultured.
(§3) The cell was cultured with drugs for 3 days and then 50 μl of 50% TCA was added thereto (final concentration 10%). Subsequently the cell was fixed by being left alone at 4° C. for 1 hour. The well was washed 4 times by distilled water and then dried. After that 100 μl of SRB (Sulforhodamine B, Sigma Chemical Co.) solution (0.4% w/v in 1% acetic acid) was added thereto and then it was left alone at ordinary temperature for 30 minutes. Thereafter the well was washed 4 times by 1% acetic acid and dried. And then after adding 200 μl of 10 mM tris buffer, the absorbance at 570 nm was measured by automatic microplate reader (Model: Elx 808, Bio-Tek Instrument, INC). The viability was calculated from the ratio of the absorbance of the control to which drugs were not added and the well to which drugs were added.

Data set [2] concerns HUVEC (human umbilical vein endothelial cell). Briefly: Inhibiting activity on cell proliferation, SRB analysis (HUVEC). The format is cell-based. Conditions: HUVEC cells, 3 days with drug. Here is the method:
as §1, §2, §3

The next data set deals with L5178Y lymphoma. Briefly: Inhibiting activity on cell proliferation, MTT analysis (L5178Y). It is filed as cell-based, murine. Conditions: L5178Y lymphoma cells, 3 days with drug. Here is the method: as §1, §2
The tumor cell was cultured with drugs for 3 days and then 50 μl of MTT (3-(4,5-dimethylthiazole-2-yl)-2,5-diphenyl tetrazolium bromide, Sigma Chemical Co.) solution (2.5 mg/ml in PBS) was added thereto. And it was further cultured for 4 hours at 37° C. Culture medium was removed carefully. And after dissolving formazan crystal by adding 150 μl of DMSO, the absorbance at 570 nm was determined.

The nature of a further data set: Solubility test. The format is physicochemical. To be noted: ordinary temperature. As to the method:
To a constant amount (400 mg) of each compounds of present invention, a constant amount of demineralized water, methanol and ethanol were added separately, and the solution was stirred at ordinary temperature.

Data set [3] is described as follows: Chemical stability test (HPLC purity). To be noted: for 1 month Other peaks (%) / 1 month Parent peak (%) / Initial Other peaks (%) / Initial Parent peak (%): HPLC; for 1 month Other peaks (%) / 1 month Parent peak (%): air-tight vessel; for change of purity (%): initial vs 1 month at 40±2° C.
Description: Each compound of the present invention was kept in an air-tight vessel for 1 month at 40±2° C. and 75±5% of relative humidity. Thereafter the HPLC purity test was executed.
25 mL of the solution was precisely taken, and poured into 100 mL volumetric flask. Acetonitrile/20 mM ammonium acetate aqueous solution (50:50) was added thereto to be the total volume of 100 ml. The solution was filtrated, and the filtrate was used as a test liquid.
(2) Operational Condition of Instrument. • Column: Kromasil®C18 (UG 100 Å, 5 μm, 4.6 mm Φ×250 mm) • Column temperature: 30° C. • Mobil phase: 20 mM ammonium acetate (pH 4.2) buffer:acetonitrile (55:45) • Injection volume: 20 μL • Flow rate: 1.2 mL/min • Detector: UV light-absorption Spectrophotometer (detection wavelength: 306 nm)
Setting [4] is: Bos taurus, Endothelial cell, 72 h.
Setting [5] is: 1 month at 40±2° C., 75±5% relative humidity.

13 compounds from patent US20100056623A1, “FUMAGILLOL DERIVATIVES OR METHOD FOR PREPARATION OF FUMAGILLOL DERIVATIVES, AND PHARMACEUTICAL COMPOSITIONS COMPRISING THE SAME” (CHONG KUN DANG PHARMACEUTICAL CORP., priority 2005, published 2010) can be followed below.

Read-outs that look alike come from different tables or passages of the source.

As to `CO[C@@H]1[C@H](OC(=O)/C=C/c2ccc(OCCCCCO)c([N+](=O)[O-])c2)CC[C@]2(CO2)[C@H]1[C@@]1(C)O[C@@H]1CC=C(C)C` [Example 24, O-(3-nitro-4-(5-hydroxypentoxy)cinnamoyl)fumagillol], the IC50 is 0.0946 nM in data set [1] (setting [4]); 0.0042 nM in data set [2] (Homo sapiens, 72 h); 10400 nM with L5178Y lymphoma (Mus musculus, 72 h). Also, the “Selectivity Index (L5178Y/CAPE)” value in data set [1] is 1.10 × 10^5.
In the case of `CO[C@@H]1[C@H](OC(=O)C=Cc2ccc(OCCN(C)C)cc2)CC[C@]2(CO2)[C@H]1[C@@]1(C)O[C@@H]1CC=C(C)C` [CKD-732, O-(4-dimethylaminoethoxycinnamoyl)fumagillol, reference compound], in data set [1], the IC50 is 0.648 nM and the “Selectivity Index (L5178Y/CAPE)” value was 1.35 × 10^4. In data set [2], this compound displayed a concentration for half-maximal inhibition (IC50) of 0.0066 nM. The IC50 with L5178Y lymphoma turned out to be 8720 nM. In addition, in “Solubility test”, the “The amount of solvent to dissolve 1 g of the compounds (ml), demineralized water” value (shortened to “The amount of solvent … demineralized water”) was determined as 1100 mL; the “The amount of solvent to dissolve 1 g of the compounds (ml), ethanol” value (shortened to “The amount of solvent … (ml), ethanol”) worked out at 219 mL; the “The amount of solvent to dissolve 1 g of the compounds (ml), methanol” value (“The amount of solvent to dissolve 1 g … methanol” for short) came to 197 mL. Moreover, in data set [3] (setting [5]), the “1 month Other peaks (%)” value is given as 4.6% and the “1 month Parent peak (%)” value was 95.4%. Further, in data set [3], the “Initial Other peaks (%)” value stood at 0.8% and the “Initial Parent peak (%)” value turned out to be 99.2%. For the same compound, the “change of purity (%)” value in data set [3] (75±5% relative humidity) amounted to 3.8%.
Turning to `COc1cc(/C=C/C(=O)O[C@@H]2CC[C@]3(CO3)[C@@H]([C@@]3(C)O[C@@H]3CC=C(C)C)[C@@H]2OC)cc(OC)c1Oc1ccc(CO)cc1` [Example 9, O-(3,5-dimethoxy-4-(4-hydroxymethylphenoxy)cinnamoyl)fumagillol], the IC50 was determined as 0.811 nM in data set [1] (setting [4]); 0.00361 nM in data set [2] (Homo sapiens, 72 h); 61200 nM in the data set with L5178Y lymphoma (Mus musculus, 72 h). In data set [1], the “Selectivity Index (L5178Y/CAPE)” value is 7.54 × 10^4.
The like results for `COc1ccc(/C=C/C(=O)O[C@@H]2CC[C@]3(CO3)[C@@H]([C@@]3(C)O[C@@H]3CC=C(C)C)[C@@H]2OC)cc1Oc1ccc(CO)cc1` [Example 11, O-(3-(4-hydroxymethylphenoxy)-4-methoxycinnamoyl)fumagillol] were, in that order, 0.655 nM, 0.0036 nM, 75000 nM and 1.15 × 10^5.
In the same order, the values of `CO[C@@H]1[C@H](OC(=O)/C=C/c2ccc(NCCOCCO)cc2)CC[C@]2(CO2)[C@H]1[C@@]1(C)O[C@@H]1CC=C(C)C` [Example 16, O-(4-(2-hydroxyethoxyethylamino)cinnamoyl)fumagillol] are 0.041 nM, 0.0022 nM, 9490 nM and 2.31 × 10^5.
Take `CO[C@@H]1[C@H](OC(=O)/C=C/c2cccc(NCCO)c2)CC[C@]2(CO2)[C@H]1[C@@]1(C)O[C@@H]1CC=C(C)C` [Example 6, O-(3-(2-hydroxyethylamino)cinnamoyl)fumagillol]: the IC50 in data set [1] (setting [4]) was 0.0071 nM. Besides, in data set [1], the “Selectivity Index (L5178Y/CAPE)” value is reported as 3.88 × 10^6. This compound also gave an IC50 in data set [2] (Homo sapiens, 72 h) of 0.00222 nM. This compound also had an IC50 with L5178Y lymphoma (Mus musculus, 72 h) of 27700 nM. In addition, in “Solubility test”, the “The amount of solvent … demineralized water” value worked out at 130 mL; the “The amount of solvent … (ml), ethanol” value is 58 mL; the “The amount of solvent to dissolve 1 g … methanol” value was found to be 31 mL. In data set [3] (setting [5]), the “chemical stability compared to known compounds” value was “more excellent chemical stability than TNP-470, CKD-732 and CKD-731”; the “1 month Other peaks (%)” value is listed as 1.9%; the “1 month Parent peak (%)” value is 98.1%. Also, in data set [3], the “Initial Other peaks (%)” value was 1.4% and the “Initial Parent peak (%)” value is 98.6%. Further, in data set [3] (75±5% relative humidity), the “change of purity (%)” value is listed as 0.5%.
`CO[C@@H]1[C@H](OC(=O)NC(=O)CCl)CC[C@]2(CO2)[C@H]1[C@@]1(C)O[C@@H]1CC=C(C)C` [TNP-470, O-chloroacetylcarbamoylfumagillol, reference compound]: the IC50 in data set [1] (setting [4]) is 0.449 nM. Besides, in data set [1], the “Selectivity Index (L5178Y/CAPE)” value is reported as 3.85 × 10^3. Moreover, the IC50 in data set [2] (Homo sapiens, 72 h) is 0.00896 nM. Further, the IC50 in the data set with L5178Y lymphoma (Mus musculus, 72 h) was 4300 nM. Moreover, in “Solubility test”, the “The amount of solvent … demineralized water” value amounted to 876 mL; the “The amount of solvent … (ml), ethanol” value worked out at 250 mL; the “The amount of solvent to dissolve 1 g … methanol” value is 208 mL. In data set [3] (setting [5]), the “1 month Other peaks (%)” value was found to be 3.5% and the “1 month Parent peak (%)” value is reported as 96.5%. Further, in data set [3], the “Initial Other peaks (%)” value amounted to 1.3% and the “Initial Parent peak (%)” value amounted to 98.7%. In addition, the “change of purity (%)” value in data set [3] (75±5% relative humidity) is reported as 2.2%.
`CO[C@@H]1[C@H](OC(=O)/C=C/c2ccc(OCCCCCCO)cc2)CC[C@]2(CO2)[C@H]1[C@@]1(C)O[C@@H]1CC=C(C)C` [Example 25, O-(4-(6-hydroxyhexyloxy)cinnamoyl)fumagillol]: the IC50 in data set [1] (setting [4]) worked out at 0.124 nM; in data set [2] (Homo sapiens, 72 h), 0.0015 nM; in the data set on L5178Y lymphoma (Mus musculus, 72 h), 21100 nM. Besides, the “Selectivity Index (L5178Y/CAPE)” value in data set [1] is recorded as 1.70 × 10^5.
Regarding `CO[C@@H]1[C@H](OC(=O)/C=C/c2ccc(OCCCCCO)cc2)CC[C@]2(CO2)[C@H]1[C@@]1(C)O[C@@H]1CC=C(C)C` [Example 23, O-(4-(5-hydroxypentoxy)cinnamoyl)fumagillol], the IC50 is 0.0467 nM in data set [1] (setting [4]); 0.0057 nM in data set [2] (Homo sapiens, 72 h); 9250 nM with L5178Y lymphoma (Mus musculus, 72 h). Further, the “Selectivity Index (L5178Y/CAPE)” value in data set [1] was 1.98 × 10^5.
In the same order, the values of `CO[C@@H]1[C@H](OC(=O)/C=C/c2cccc(NCCOCCO)c2)CC[C@]2(CO2)[C@H]1[C@@]1(C)O[C@@H]1CC=C(C)C` [Example 17, O-(3-(2-hydroxyethoxyethylamino)cinnamoyl)fumagillol] are 0.049 nM, 0.00302 nM, 30700 nM and 6.26 × 10^5.
Regarding `CO[C@@H]1[C@H](OC(=O)/C=C/c2ccc(Cl)c(NCCOCCO)c2)CC[C@]2(CO2)[C@H]1[C@@]1(C)O[C@@H]1CC=C(C)C` [Example 18, O-(4-chloro-3-(2-hydroxyethoxyethylamino)cinnamoyl)fumagillol], the IC50 in data set [1] (setting [4]) amounted to 0.045 nM; in data set [2] (Homo sapiens, 72 h), 0.0019 nM; with L5178Y lymphoma (Mus musculus, 72 h) it was 41900 nM. The “Selectivity Index (L5178Y/CAPE)” value in data set [1] is 9.31 × 10^5.
On to `CO[C@@H]1[C@H](OC(=O)/C=C/c2ccc(OCCCCCCO)c(C(F)(F)F)c2)CC[C@]2(CO2)[C@H]1[C@@]1(C)O[C@@H]1CC=C(C)C` [Example 26, O-(3-trifluoromethyl-4-(6-hydroxyhexyloxy)cinnamoyl)fumagillol], for which the IC50 in data set [1] (setting [4]) came out at 0.677 nM; in data set [2] (Homo sapiens, 72 h), 0.0019 nM; with L5178Y lymphoma (Mus musculus, 72 h), 9990 nM. The “Selectivity Index (L5178Y/CAPE)” value in data set [1] is reported as 1.48 × 10^4.
The like results for `CO[C@@H]1[C@H](OC(=O)/C=C/c2ccc(Oc3ccc(CO)cc3)cc2)CC[C@]2(CO2)[C@H]1[C@@]1(C)O[C@@H]1CC=C(C)C` [Example 8, O-(4-(4-hydroxymethylphenoxy)cinnamoyl)fumagillol] were, in that order, 0.857 nM, 0.00456 nM, 60200 nM and 7.03 × 10^4.

One may read the IC50 as the midpoint of a concentration-inhibition curve.
